Assay results reported in patent publication US12636266B2 (Rivo Bio, Inc., priority 2024, dated 2026).

Assays:
[1] = biological target: T1, human recombinant 5-HT2A receptor (Homo sapiens, UniProt P28223); experiment: IPOne HTRF agonist assay, percent activity at 5-HT2A; assay type: cell-based; conditions: relative to 5-HT
T1 construct: host or cells: CHO-K1

[2] = biological target: T1, human recombinant 5-HT2A receptor; experiment: as above; assay type: cell-based; conditions: relative to a-Me-5-HT, CHO-K1 cells; for activation at 0.3 µM / activation at 30 µM: 1 h, read-out: Percent (a-Me-5-HT) Activity at 5-HT2A (30 uM/0.3 μM)
Description: Example 16: Percent (α-Me-5-HT) Activity at 5-HT2A Assay
Compounds were tested in the IPOne HTRF (Homogeneous Time Resolved Fluorescence) assay at Epics Therapeutics S.A. (Belgium). Briefly, CHO-K1 cells expressing human recombinant 5-HT2A receptor grown to mid-log phase in culture media without antibiotics were detached with PBS-EDTA, centrifuged and resuspended in medium without antibiotics buffer. 20,000 cells were distributed in a 96 well plate and incubated overnight at 37° C. with 5% CO2. For agonist testing (384-well, suspension), 5 μl of cells were dispensed on 5 μl of test compound or reference agonist in each well and the plate was incubated for 60 min. at 37° C. with 5% CO2. IP1-D2 reagent and anti-IP1 cryptate reagents were then dispensed in the wells and IP1 concentrations were then measured following the manufacturer recommendations.

[3] = Z to E isomer conversion by NMR; assay type: physicochemical; conditions: shortly following synthesis
Description: Compound 5, described here with structure shown in Scheme 1, is the stable E isomer. However, the initial reaction in Scheme 1 with compound 5-1 produces both the E and Z isomers of 5-2b. Column chromatography was used to separate the isomers and each isomer was then carried through the next three reactions separately, to produce both compound 5 and its Z isomer.

T1 sequence (P28223 whole entry): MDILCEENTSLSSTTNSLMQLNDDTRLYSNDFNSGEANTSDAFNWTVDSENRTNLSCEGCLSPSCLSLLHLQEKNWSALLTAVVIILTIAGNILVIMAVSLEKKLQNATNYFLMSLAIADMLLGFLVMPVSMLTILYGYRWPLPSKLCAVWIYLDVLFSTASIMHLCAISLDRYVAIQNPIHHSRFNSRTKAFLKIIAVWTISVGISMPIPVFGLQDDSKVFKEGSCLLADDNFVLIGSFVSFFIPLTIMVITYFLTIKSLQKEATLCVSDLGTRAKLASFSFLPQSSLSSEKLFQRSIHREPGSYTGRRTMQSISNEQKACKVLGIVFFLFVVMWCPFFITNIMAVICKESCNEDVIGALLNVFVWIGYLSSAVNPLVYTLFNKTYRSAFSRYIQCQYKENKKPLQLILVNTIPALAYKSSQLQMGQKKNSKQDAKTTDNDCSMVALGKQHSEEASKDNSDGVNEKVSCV

| SMILES | Percent (a-Me-5-HT) Activity at 5-HT2A (30 uM/0.3 μM) ([2]; 0.3 μM (second value)) | Percent (a-Me-5-HT) Activity at 5-HT2A (30 uM/0.3 μM) ([2]; 30 uM (first value)) | further results |
| --- | --- | --- | --- |
| COc1ccc2c(c1)/C(=C/CN(C)C)CC2 [Compound 5, N,N-Dimethyl[(E)-2-(6-methoxy-1-indanylidene)ethyl]amine] | 74% | 96% | Percent (5-HT) Activity at 5-HT2A (30 μM) [1]: 92% |
| COC1C/C(=C\CN)c2ccccc21 (stereo not shown) [Compound 29] | 6% | 53% |  |
| OCc1ccc2c(c1)/C(=C/CN1CCC1)CC2 [Compound 103, {(E)-3-[2-(1-Azetidinyl)ethylidene]-5-indanyl}methanol] | 9% | 94% |  |
| COc1ccc2c(c1)/C(=C(\F)CN(C)C)CC2 [Compound 10, N,N-Dimethyl[(Z)-2-(6-methoxy-1-indanylidene)-2-fluoroethyl]amine] | 4% | 1% |  |
| COC1C/C(=C\CN2CCC2)c2ccccc21 (stereo not shown) [Compound 30, 1-[(E)-2-(3-Methoxy-1-indanylidene)ethyl]azetidine] | 3% | 24% |  |
| CN(C)C/C=C1\CCc2sccc21 [Compound 31, N,N-Dimethyl[(E)-2-{2-thiabicyclo[3.3.0]octa-1(5),3-dien-6-ylidene}ethyl]amine] | 3% | 2% |  |
| COc1ccc2c(c1)CC/C2=C\CN1CCC1 [Compound 25, 1-[(E)-2-(5-Methoxy-1-indanylidene)ethyl]azetidine] |  |  | activation at 0.3 µM ([2]; 0.3 μM (second value)): 0%; activation at 30 µM ([2]; 30 uM (first value)): -3% |
| COc1ccc2c(c1)CC/C2=C\CN(C)C [Compound 26, N,N-Dimethyl[(E)-2-(5-methoxy-1-indanylidene)ethyl]amine] |  |  | activation at 0.3 µM ([2]; 0.3 μM (second value)): 10%; activation at 30 µM ([2]; 30 uM (first value)): -1% |
| CCC(N)/C=C1\CCc2ccccc21 (stereo not shown) [Compound 101, 1-[(E)-(1-Indanylidene)methyl]propylamine] | 15% | 20% |  |
| CN(C)C/C=C1\CCc2ccc3c(c21)CCO3 [Compound 14, N,N-Dimethyl[(E)-2-(3-oxa-1,2,6,7-tetrahydro-as-indacen-8-ylidene)ethyl]amine] | 6% | 33% |  |
| COc1ccc2c(c1)/C(=C/CN1CCC1)CC2 [Compound 12, 1-[(E)-2-(6-Methoxy-1-indanylidene)ethyl]azetidine] | 27% | 47% |  |
| COc1ccc2c(c1)/C(=C\C=O)CC2 (single isomer, unassigned) [Z isomer of compound 5-4] |  |  | Z isomer converting to the E isomer (by NMR) [3]: 40% |
| C(/CN1CCC1)=C1/CCc2cccnc21 [Compound 28, 1-[(E)-2-(4-Aza-3-indanylidene)ethyl]azetidine] | 5/5% | 5/5% |  |
| FC(F)(F)Oc1ccc2c(c1)/C(=C/CN1CCC1)CC2 [Compound 27, 1-[(E)-2-(6-Trifluoromethoxy-1-indanylidene)ethyl]azetidine] | 5% | 8% |  |
| C(/CN1CCC1)=C1/CCc2ccc3c(c21)CCO3 [Compound 24, 1-[(E)-2-(3-Oxa-1,2,6,7-tetrahydro-as-indacen-8-ylidene)ethyl]azetidine] | 17% | 38% |  |
| CN(C)C/C=C1\C=Cc2ccccc21 [Compound 22, N,N-Dimethyl[(E)-2-(1-indenylidene)ethyl]amine] | 5% | 49% |  |
| COc1ccc2c(c1)/C(=C(/F)CN(C)C)CC2 [Compound 23, N,N-Dimethyl[(E)-2-(6-methoxy-1-indanylidene)-2-fluoroethyl]amine] |  |  | activation at 0.3 µM ([2]; 0.3 μM (second value)): -1%; activation at 30 µM ([2]; 30 uM (first value)): -2% |
